Experimental data: patent US20070053955A1, “Compositions and methods for improving cellular survival and reducing apoptosis after ischemic episode in the brain” (NESTEC S.A., priority 2005, published 2007)

What was measured:
Assay type in all cases: in vivo
[1] = system: transient cerebral ischemia in an ovariectomized rat model; assay: Cerebral ischemia-induced apoptosis, DNA fragmentation by TUNEL staining after tMCA occlusion; settings: mean of three brain regions, normalized to DAPI cell count, vs control diet (FIG. 3)
[2] = system: transient cerebral ischemia in an ovariectomized rat model; assay: Transient middle cerebral artery (tMCA) occlusion, ischemic lesion (infarct) volume by TTC staining; settings: all rats, vs control diet, 60 min tMCA occlusion, 24 h reperfusion (FIG. 1)
Description: Animals. Female Charles Rivers Sprague-Dawley rats (250 g, Wilmington, Mass.) were acclimatized to animal facilities three days prior to surgery with a 12 hour light-dark cycle. Bilateral ovariectomy was performed 2 weeks before diet feeding began. Four weeks after the start of diet feeding, transient middle cerebral artery (tMCA) occlusion under anesthesia was performed following intraperitoneal (i.p.) injection of ketamine (60 mg/kg) and xylazine (10 mg/kg).
Diet and Hormone Administration. Fourteen to 15 rats per group were randomly assigned to one of five treatment groups. These groups were as follows: […]
All diets were fed ad libitum to the rats for four weeks. […] Also once per week, body weights and food intake were determined. […]
Middle cerebral artery occlusion and samples preparation. […] Rectal temperature was monitored and maintained between 36.5 and 37° C. with a heating pad throughout the procedure. […]
Some animals were eliminated from the study during the protocol. The number of animals quantified for lesion volume ranged from 12 to 15 per group.
Statistical methods. Results were analyzed with one-way analysis of variance (ANOVA) using Prism software(Graphpad Inc; San Diego, Calif.). The significance of differences among groups was determined by one-way ANOVA followed by Tukey's multiple comparison tests. All values were expressed as mean±SEM.

[3] = system: growth factors and anti-inflammatory proteins; assay: Expression of growth factors and anti-inflammatory proteins in dogs given supplemental arginine; settings: dietary supplementation

Row | Compound | TUNEL staining / TUNEL-positive cell counts [1] | effect on infarct size / mean infarct volume [2] | reduction of infarct volume ([2]; diets fed 4 weeks, E2 implant 1 week) [%] | expression of growth factors and anti-inflammatory proteins [3]
1 | C[C@]12CC[C@@H]3c4ccc(O)cc4CC[C@H]3[C@@H]1CC[C@@H]2O [Estradiol, 17β-estradiol] | substantial reduction in TUNEL staining | reduced infarct size | 68 | 
2 | N=C(N)NCCC[C@H](N)C(=O)O [arginine, L-arginine] |  |  |  | increased expression of multiple growth factors and anti-inflammatory proteins in a dose-dependent manner
